Patent publication US20210115145A1, “COMBINATION THERAPY WITH TARGETED TGF-B INHIBITION FOR TREATMENT OF ADVANCED NON-SMALL CELL LUNG CANCER” (Merck Patent GmbH, priority 2018, published 2021)

What was measured:
[1] = test system: advanced malignant melanoma or renal cell carcinoma; settings: cited from earlier work
[2] = test system: EMT-6 xenografts; assay: Mouse PK/Efficacy model from EMT-6 xenograft efficacy results; format: in vivo
Procedure: Experiments were also conducted to determine the efficacy of the anti-PD-L1/TGFβ Trap molecule in a tumor model. Efficacy results from EMT-6 xenografts were used to establish the PK/Efficacy model.
The model predictions are able to capture the tumor volume distributions. Conditional weighted residuals are normally distributed with a 0 mean and 1 variance without a trend. The PK/Efficacy model was then used to simulate tumor growth inhibition (TGI) using the human predicted concentration-time profiles at different doses.

[3] = test system: advanced NSCLC; assay: Clinical study in 2L NSCLC, q2w dosing: response per RECIST v1.1; format: in vivo, human
[4] = test system: PD-L1 and TGFβ; assay: Two-step ELISA, simultaneous binding
[5] = test system: PD-L1 and TGFβ dependent signaling; assay: Inhibition of PD-L1 and TGFβ dependent signaling in vitro; format: cell-based
[6] = test system: mouse tumor models; assay: Antitumor activity in mouse tumor models; format: in vivo
[7] = test system: melanoma; settings: Phase I; cited from earlier work
[8] = test system: scarring after eye surgery; settings: Phase 3; cited from earlier work
[9] = target: TGFβ1 (Homo sapiens, UniProt P01137); settings: binding of TGFβ1; cited from earlier work
[10] = PK/Efficacy model parameter estimate, EMT-6 xenograft mice
[11] = PD-L1 high (≥80%) pts, 500 mg q2w
[12] = PD-L1 high (≥80%) pts, 1200 mg q2w

TGFβ1, sequence (P01137 279-390 limits assumed, species assumed): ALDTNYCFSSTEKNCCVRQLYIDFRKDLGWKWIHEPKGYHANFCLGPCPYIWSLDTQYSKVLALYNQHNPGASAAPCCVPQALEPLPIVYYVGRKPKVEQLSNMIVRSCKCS

Molecule: GC1008: a human antibody specific for all isoforms of TGFβ
- clinical efficacy ([1]; Phase I/II, patients): only limited clinical efficacy
- safety ([1]; in vivo): safe and well tolerated

Molecule: anti-PD-L1/TGFβ Trap: bi-functional fusion protein: anti-PD-L1 antibody heavy chains fused via glycine-serine linker to extracellular domain of human TGFβRII; SEQ ID NO: 3 and 1
- KC50 [2, 10]: 55324.6 ng/mL
- Kmax [2, 10]: 2
- KC50 (average plasma concentration for 50% of the maximal anti-tumor activity) ([2]; estimated, EMT-6 xenografts): 55.3 µg/mL
- ORR, % ([3]; All patients, 500 mg q2w): 20.0%
- ORR, n (responders/patients) ([3]; All patients, 500 mg q2w): 8/40
- ORR, % ([3]; All patients, 1200 mg q2w): 27.5%
- ORR, n (responders/patients) ([3]; All patients, 1200 mg q2w): 11/40
- ORR, n (responders/patients) ([3]; All patients, Total): 19/80
- ORR, % ([3]; All patients, Total (both doses)): 23.8%
- ORR, % ([3]; PD-L1+ (≥1%) pts, 500 mg q2w): 19.4%
- ORR, n (responders/patients) ([3]; PD-L1+ (≥1%) pts, 500 mg q2w): 6/31
- ORR, % ([3]; PD-L1+ (≥1%) pts, 1200 mg q2w): 40.7%
- ORR, n (responders/patients) ([3]; PD-L1+ (≥1%) pts, 1200 mg q2w): 11/27
- ORR, % ([3]; PD-L1+ (≥1%) pts, Total): 29.3%
- ORR, n (responders/patients) ([3]; PD-L1+ (≥1%) pts, Total): 17/58
- ORR, % [3, 11]: 33.3%
- ORR, n (responders/patients) [3, 11]: 2/6
- ORR, % [3, 12]: 85.7%
- ORR, n (responders/patients) [3, 12]: 6/7
- ORR, % ([3]; PD-L1 high (≥80%) pts, Total): 62.0%
- ORR, n (responders/patients) ([3]; PD-L1 high (≥80%) pts, Total): 8/13
- partial responses (PR) ([3]; across both dose levels (500 mg and 1200 mg q2w), 80 patients): 18
- complete response (CR) ([3]; at 1200 mg q2w): 1
- simultaneous binding to PD-L1 and TGFβ ([4]; FIG. 2): simultaneously binds to both PD-L1 and TGFβ
- simultaneous binding to PD-L1 and TGFβ ([4]; FIG. 2, listed as protein of the present disclosure): simultaneously bound to both PD-L1 and TGFβ
- PD-L1 and TGFβ dependent signaling [5]: inhibited
- antitumor activity and survival versus anti PD-L1 antibody avelumab or TGFβ Trap control alone ([6]; mouse tumor models, preclinical data): strongly enhances antitumor activity and prolongs survival
- antitumor activity ([6]; variety of mouse models): potent antitumor activity

Molecule: fresolimumab: monoclonal antibody targeting TGFβ1, 2 and 3
- tumor response [7]: initial evidence of tumor response

B1: Lerdelimumab: an antibody specific for TGFβ2 (antibody, chains of the INN, looked up, V domains shown)
VH: EVQLVESGGGVVQPGRSLRLSCAASGFTFSSYGMHWVRQAPGKGLEWVAVIWYDGSNKYYADSVKGRFTISRDNSKNTLYLQMDSLRAEDTAVYYCGRTLESSLWGQGTLVTVSS
VL: SSELTQDPAVSVALGQTVRITCQGDSLRSYYASWYQQKPGQAPVLVIYGKNNRPSGIPDRFSGSSSGNTASLTITGAQAEDEADYYCNSRDSSSTHRGVFGGGTKLTVL
- safety and efficacy at improving scarring [8]: safe but ineffective

B2: recombinant soluble TGFβRII: recombinant soluble extracellular domain of TGFβRII (protein, UniProt P37173 23-166, looked up)
extracellular domain: TIPPHVQKSVNNDMIVTDNNGAVKFPQLCKFCDVRFSTCDNQKSCMSNCSITSICEKPQEVCVAVWRKNDENITLETVCHDPKLPYHDFILEDAASPKCIMKEKKKPGETFFMCSCSSDECNDNIIFSEEYNTSNPDLLLVIFQ
modifications: extracellular domain
- Kd [9]: 200 pM
